Reference: publication PMC7046553, “Backbone Cyclization and Dimerization of LL-37-Derived Peptides Enhance Antimicrobial Activity and Proteolytic Stability” (Frontiers in Microbiology, 2020)
Where no end group is shown, it is not given here.

What was measured:
[1] = test system: Staphylococcus aureus ATCC 29213; set-up: method as in Gunasekera et al., 2018; conditions: ref Gunasekera et al., 2018; cited from earlier work
[2] = Liposome leakage assay, fungal liposomes; set-up: species or system S. cerevisiae; conditions: 50% leakage, 45 min incubation, 37°C; read-out: EC50 fung. (liposome leakage)
Description: FIGURE 3 Peptide induced liposome leakage. Bacterial liposomes based on E. coli polar lipid extract (A,B), and fungal liposomes of S. cerevisiae polar lipid extract and ergosterol (7:3) (C), were monitored for fluorescent marker leakage over 45 min of incubation with peptides. (A) Compares membrane disrupting efficacy at the 45 min mark for the parent peptide, monomer, lysine substitutions and dimerization, (B) effects of linker length, monomer directionality and backbone cyclization, (C) effect on KR-12 directionality and dimerization on a fungal liposome system. […] Results are means from triplicate experiments with standard deviations.
The liposome production and the liposome leakage assay were performed similar to what has previously been described ([Strömstedt et al., 2016]). […] Membrane permeability was measured by monitoring carboxyfluorescein efflux from the liposomes to the external low concentration environment, resulting in loss of self-quenching and an increased fluorescence signal. […] The effect of each peptide concentration on liposome integrity was monitored for 45 min, at which point the leakage had largely subsided. […] EC50-values are calculated from sigmoidal dose-response curves of leakage percentage as a function of the peptide concentration (log10).

[3] = test system: Pseudomonas aeruginosa ATCC 27853; set-up: method as in Gunasekera et al., 2018; conditions: ref Gunasekera et al., 2018; cited from earlier work
[4] = test system: Escherichia coli; set-up: method as in Wang, 2008; conditions: ref Wang, 2008; cited from earlier work
[5] = Liposome leakage assay, bacterial liposomes; set-up: species or system E. coli
Description: Membrane disruption was assayed by liposome leakage. […] E. coli and Saccharomyces cerevisiae membrane lipids were reconstituted into large unilamellar vesicles, trapping a self-quenching fluorescent marker.
Polar lipid extract from E. coli, and S. cerevisiae (Avanti Polar Lipids, Alabaster, AL-US) were used, the latter supplemented with ergosterol (Sigma-Aldrich) at a 7:3 molar ratio. In brief, dry lipid films were deposited on round-bottom flask walls and re-suspended in Tris buffer containing of 100 mM 5(6)-carboxyfluorescein. Multilamellar structures and polydispersity were reduced by repeated extrusion through 100-nm polycarbonate membranes. Un-trapped carboxyfluorescein was removed by gel separation. Membrane permeability was measured by monitoring carboxyfluorescein efflux from the liposomes to the external low concentration environment, resulting in loss of self-quenching and an increased fluorescence signal. The leakage experiments were performed on a 96-well plate format. […] EC50-values are calculated from sigmoidal dose-response curves of leakage percentage as a function of the peptide concentration (log10).

[6] = test system: Candida albicans ATCC 90028; set-up: method as in Gunasekera et al., 2018; conditions: ref Gunasekera et al., 2018; cited from earlier work
[7] = test system: Human type A RBCs; assay: Hemolysis assay; format: cell-based
Description: Peptides were dissolved in water and serially diluted in PBS to give 20 μl test solutions in a 96-well U-bottomed microtiter plate (Nunc). Human type A RBCs (red blood cells) were washed with PBS and centrifuged at 1500 g for 60 s in a microcentrifuge several times until a clear supernatant was obtained. A 0.25% suspension of washed RBCs in PBS (100 μl) was added to the peptide solutions. The plate was incubated at 37°C for 1 h and centrifuged at 150 g for 5 min. Aliquots of 100 μl were transferred to a 96-well flat-bottomed microtiter plate (Falcon) and the absorbance was measured at 405 nm with an automatic Multiskan Ascent plate reader (Labsystems). The amount of hemolysis was calculated as the percentage of maximum lysis (1% Triton X-100 control) after adjusting for minimum lysis (PBS control). Synthetic melittin (Sigma) was used for comparison. The hemolytic dose necessary to lyse 50% of the RBCs (HD50) was calculated using the regression constant from the linear portion of the hemolytic titration curve (GraphPad Prism software).

[8] = test system: Escherichia coli ATCC 25922; set-up: method as in Gunasekera et al., 2018; conditions: ref Gunasekera et al., 2018; cited from earlier work
[9] = test system: Escherichia coli ATCC 25922; conditions: ATCC 25922, 5 h
Description: (§1) The three bacterial strains: Escherichia coli ATCC 25922, Pseudomonas aeruginosa ATCC 27853 Staphylococcus aureus ATCC 29213 as well as the fungal strain Candida albicans ATCC 90028 derived from clinical wound infections were obtained from the Department of Clinical Bacteriology at Lund University Hospital.
(§2) Antimicrobial activities of the peptides were evaluated using the two-step microdilution assay ([Strömstedt et al., 2017]), which is designed for testing AMPs without activity-inhibiting components. Briefly, the microbial suspension was washed twice with 10 mM Tris buffer (set to pH 7.4 at 37°C). 96-well plates (U-shaped, untreated polystyrene) were prepared with peptide 2-fold serial dilutions in Tris buffer. The culture density was quantified by OD600, diluted in Tris buffer and 50,000 cells aliquoted to each well in the 96-well plate to a final 100 μl volume. After 5 h of aerobic incubation at 37°C, 5 μl of 20% TSB medium was added to each well (resulting in 1% TSB) and the plates were re-incubated. Growth-inhibition was monitored when controls produced pellet sizes of 2 mm in diameter (close to growth saturation), which equates to 5, 8, 10, and 12 h for E. coli, S. aureus, P. aeruginosa, and C. albicans, respectively. […] The MIC-values in Table 1, are medians from triplicate experiments, while the data presented in the Figure 2 are the same values relative to that of KR-12.

[10] = test system: Candida albicans ATCC 90028; conditions: ATCC 90028, 5 h
Description: as §1, §2

[11] = test system: human lymphoma cell line U-937 GTB; conditions: cited from earlier work

Sequence: KRIVQRIKDFLR [KR-12]
- MIC against Staphylococcus aureus [1]: 10 µM
- EC50 [2]: 0.95 µM
- MIC against Pseudomonas aeruginosa [3]: 10 µM
- MIC against Escherichia coli [4]: 40 µM
- EC50 ([5]; 50% leakage, 45 min incubation, 37°C, read-out: EC50 bact. (liposome leakage)): ~25 µM
- fold higher concentration than LL-37 required to reach 50% leakage ([5]; E. coli liposomes): 38 fold
- MIC against Candida albicans [6]: 10 µM
- HC50 (hemolysis) [7]: > 80 µM
- MIC against Escherichia coli [8]: 2.5 µM
- MIC bact. [9]: 2.5 µM
- MIC fung. [10]: 10 µM
- loss of cell viability ([11]; at the maximum concentration of 80 μM, ref Gunasekera et al., 2018): 13%
- IC50 [11]: > 80 µM
